The target in assay [1] is Cav2.2 (UniProt Q02294). Put plainly: Oocyte assay (Xenopus oocyte heterologous expression, current at fifth pulse P5). Conditions: Xenopus oocytes; fifth pulse (P5) of 5 Hz train, holding potential −100 mV. It counts as cell-based. As for the experimental part:
The assay was performed on various calcium channels (e.g., Cav2.2 subfamily) whereby the modulation of the calcium channel was measured for each tested compound.

In assay [2] the target is T1, Cav2.2 (Homo sapiens, UniProt Q00975).
T1 construct: expressed in transfected cells; host or cells: HEK-293T/17 (transient, FuGENE 6)
T1 sequence (Q00975 whole entry): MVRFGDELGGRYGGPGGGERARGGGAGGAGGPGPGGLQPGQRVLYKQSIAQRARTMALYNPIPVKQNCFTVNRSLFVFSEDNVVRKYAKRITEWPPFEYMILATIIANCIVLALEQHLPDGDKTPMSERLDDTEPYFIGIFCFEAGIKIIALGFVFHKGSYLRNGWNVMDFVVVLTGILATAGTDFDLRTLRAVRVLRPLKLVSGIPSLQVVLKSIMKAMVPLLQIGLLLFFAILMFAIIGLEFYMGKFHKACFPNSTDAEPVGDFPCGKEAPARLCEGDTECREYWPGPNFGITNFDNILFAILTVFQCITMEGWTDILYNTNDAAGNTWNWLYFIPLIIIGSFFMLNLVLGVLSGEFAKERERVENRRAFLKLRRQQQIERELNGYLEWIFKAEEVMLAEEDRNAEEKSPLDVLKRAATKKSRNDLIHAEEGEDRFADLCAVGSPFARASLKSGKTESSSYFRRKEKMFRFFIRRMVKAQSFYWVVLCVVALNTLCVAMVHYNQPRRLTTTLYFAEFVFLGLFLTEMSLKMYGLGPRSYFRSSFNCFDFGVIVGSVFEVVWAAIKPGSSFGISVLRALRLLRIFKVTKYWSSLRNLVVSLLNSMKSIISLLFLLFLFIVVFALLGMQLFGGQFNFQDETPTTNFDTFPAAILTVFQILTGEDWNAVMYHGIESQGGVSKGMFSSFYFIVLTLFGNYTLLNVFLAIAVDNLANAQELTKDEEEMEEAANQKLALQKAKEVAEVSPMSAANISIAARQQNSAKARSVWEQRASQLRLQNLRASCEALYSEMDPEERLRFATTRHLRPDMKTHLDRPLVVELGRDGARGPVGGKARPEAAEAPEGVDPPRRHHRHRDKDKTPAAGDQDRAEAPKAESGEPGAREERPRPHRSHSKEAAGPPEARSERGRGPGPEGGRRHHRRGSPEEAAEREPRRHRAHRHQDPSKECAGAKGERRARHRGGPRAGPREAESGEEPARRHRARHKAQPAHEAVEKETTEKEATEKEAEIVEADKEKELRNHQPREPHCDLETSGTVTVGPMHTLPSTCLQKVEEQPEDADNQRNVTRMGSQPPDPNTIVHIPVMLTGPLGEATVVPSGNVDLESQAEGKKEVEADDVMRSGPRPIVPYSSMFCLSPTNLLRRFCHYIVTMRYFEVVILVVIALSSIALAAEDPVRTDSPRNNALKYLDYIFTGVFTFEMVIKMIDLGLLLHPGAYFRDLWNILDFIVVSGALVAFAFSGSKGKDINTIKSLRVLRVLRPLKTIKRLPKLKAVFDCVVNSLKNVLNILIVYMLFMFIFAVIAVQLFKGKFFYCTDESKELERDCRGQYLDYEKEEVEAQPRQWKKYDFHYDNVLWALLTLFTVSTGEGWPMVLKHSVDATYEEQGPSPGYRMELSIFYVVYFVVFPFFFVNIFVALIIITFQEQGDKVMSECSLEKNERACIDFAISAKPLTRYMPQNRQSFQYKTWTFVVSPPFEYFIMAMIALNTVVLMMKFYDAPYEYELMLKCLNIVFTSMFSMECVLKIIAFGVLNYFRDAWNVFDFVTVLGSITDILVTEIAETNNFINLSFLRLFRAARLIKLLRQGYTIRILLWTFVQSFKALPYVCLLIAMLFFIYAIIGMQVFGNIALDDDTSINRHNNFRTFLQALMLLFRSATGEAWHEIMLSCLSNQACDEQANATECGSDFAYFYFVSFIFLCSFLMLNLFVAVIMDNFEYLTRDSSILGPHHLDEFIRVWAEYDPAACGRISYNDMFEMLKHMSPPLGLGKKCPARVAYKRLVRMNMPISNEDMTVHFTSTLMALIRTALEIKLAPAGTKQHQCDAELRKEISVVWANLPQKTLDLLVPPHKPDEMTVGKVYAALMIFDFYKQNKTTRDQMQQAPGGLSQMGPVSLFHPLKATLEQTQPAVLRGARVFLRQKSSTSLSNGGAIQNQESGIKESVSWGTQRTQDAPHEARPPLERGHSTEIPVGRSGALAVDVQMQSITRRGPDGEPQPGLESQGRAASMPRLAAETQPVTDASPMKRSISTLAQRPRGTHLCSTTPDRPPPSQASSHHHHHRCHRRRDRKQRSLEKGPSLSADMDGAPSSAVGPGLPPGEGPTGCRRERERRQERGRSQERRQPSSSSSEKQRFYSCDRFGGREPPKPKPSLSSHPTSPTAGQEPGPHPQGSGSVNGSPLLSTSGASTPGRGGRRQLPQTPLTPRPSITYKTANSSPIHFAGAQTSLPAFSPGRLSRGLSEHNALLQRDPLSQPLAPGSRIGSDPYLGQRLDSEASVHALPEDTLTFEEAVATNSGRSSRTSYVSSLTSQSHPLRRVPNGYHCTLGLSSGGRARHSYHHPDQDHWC
T1 sequence (P54284 whole entry partner): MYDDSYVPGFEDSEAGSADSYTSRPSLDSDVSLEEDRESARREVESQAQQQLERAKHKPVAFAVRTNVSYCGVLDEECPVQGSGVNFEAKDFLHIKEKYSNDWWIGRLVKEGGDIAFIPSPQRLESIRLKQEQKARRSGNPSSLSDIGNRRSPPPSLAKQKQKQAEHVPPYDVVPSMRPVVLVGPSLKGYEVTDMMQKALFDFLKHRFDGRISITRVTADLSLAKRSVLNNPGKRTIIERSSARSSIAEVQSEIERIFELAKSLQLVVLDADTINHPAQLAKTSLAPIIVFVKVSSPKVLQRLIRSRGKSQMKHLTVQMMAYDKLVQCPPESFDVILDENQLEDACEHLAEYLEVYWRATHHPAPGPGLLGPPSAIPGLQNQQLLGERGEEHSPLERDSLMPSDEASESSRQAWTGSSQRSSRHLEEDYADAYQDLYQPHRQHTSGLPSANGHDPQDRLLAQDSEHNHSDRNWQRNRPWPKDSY
T1 sequence (P54289 25-946 partner limits assumed): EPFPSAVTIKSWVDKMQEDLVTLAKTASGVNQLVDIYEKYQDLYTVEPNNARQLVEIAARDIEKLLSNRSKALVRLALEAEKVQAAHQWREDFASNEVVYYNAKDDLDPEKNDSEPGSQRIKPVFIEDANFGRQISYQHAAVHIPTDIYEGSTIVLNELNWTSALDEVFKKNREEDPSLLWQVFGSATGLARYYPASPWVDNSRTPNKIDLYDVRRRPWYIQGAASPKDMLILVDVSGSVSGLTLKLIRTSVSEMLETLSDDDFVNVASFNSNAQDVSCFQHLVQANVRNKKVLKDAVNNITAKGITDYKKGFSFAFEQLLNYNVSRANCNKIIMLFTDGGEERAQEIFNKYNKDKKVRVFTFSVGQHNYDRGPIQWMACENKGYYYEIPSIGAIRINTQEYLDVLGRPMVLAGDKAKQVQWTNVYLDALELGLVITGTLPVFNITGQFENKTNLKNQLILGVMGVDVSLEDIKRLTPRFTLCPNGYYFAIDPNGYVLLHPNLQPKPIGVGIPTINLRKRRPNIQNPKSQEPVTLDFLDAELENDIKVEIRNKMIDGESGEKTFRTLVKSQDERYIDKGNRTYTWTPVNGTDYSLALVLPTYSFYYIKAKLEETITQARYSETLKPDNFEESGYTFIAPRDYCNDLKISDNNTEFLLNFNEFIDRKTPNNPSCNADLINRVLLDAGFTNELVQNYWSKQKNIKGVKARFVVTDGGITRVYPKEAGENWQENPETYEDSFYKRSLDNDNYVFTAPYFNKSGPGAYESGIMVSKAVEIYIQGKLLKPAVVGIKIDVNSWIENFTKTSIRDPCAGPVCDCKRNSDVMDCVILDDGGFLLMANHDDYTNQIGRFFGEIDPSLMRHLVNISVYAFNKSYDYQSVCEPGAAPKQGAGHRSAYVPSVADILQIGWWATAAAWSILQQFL
T1 sequence (P54289 947-1103 partner limits assumed): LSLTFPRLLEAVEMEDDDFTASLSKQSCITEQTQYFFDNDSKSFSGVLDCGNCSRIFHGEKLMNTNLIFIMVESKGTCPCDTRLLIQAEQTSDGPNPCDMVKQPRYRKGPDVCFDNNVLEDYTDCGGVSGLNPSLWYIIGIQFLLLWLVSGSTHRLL
Put plainly: HEK assay (whole-cell patch clamp, transiently transfected HEK-293T/17 cells, pulses P1 and P5). It counts as cell-based. Conditions: holding potential −100 mV. Summed up:
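Whole-cell voltage clamp of HEK-293T/17 cells transiently transfected via FuGENE 6, then grown 24 h in 1% serum before recording. From −100 mV holding, trains of five 20–30 ms steps to about +10 mV at 5 Hz, repeated every 30 s; steady-state IC50s taken at first (P1) and fifth (P5) pulses to gauge use-dependent block.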

[3] abbreviates: fifth pulse (P5) of 5 Hz train, read-out: HEK Cav2.2 P5 IC50.
Setting [4] is: first pulse (P1) of 5 Hz train, read-out: HEK Cav2.2 P1 IC50.

Structures can show the parent of a compound that is named as a salt. Where two headings read alike, the source gives them in different places.

The source of these data is patent publication US20100267697A1, “ION CHANNEL MODULATORS” (Wyeth, priority 2006, published 2010).

Usually IC50 stands for the concentration that gives 50% inhibition.

As for `CC(C)(C)C(=O)N(Cc1csc(N2CCCCC2)n1)c1ccc(F)cc1` [Compound 2, N-(4-fluorophenyl)-2,2-dimethyl-N-(2-piperidin-1-yl-thiazol-4-ylmethyl)-propionamide hydrochloride], the values for the IC50 in assay [1], in assay [2] (setting [3]) and in assay [2] (setting [4]) were 16.9 µM, 2 µM and 16.8 µM, respectively.
Regarding `CCN(CC)c1ccc(CN(C(=O)C(C)(C)C)c2ccc(F)cc2)cn1` [Compound 3, N-(6-diethylamino-pyridin-3-ylmethyl)-N-(4-fluorophenyl)-2,2-dimethyl-propionamide trifluoroacetate], the figures for the IC50 in assay [1], in assay [2] (setting [3]) and in assay [2] (setting [4]) were 12.1 µM, 1.3 µM and 4.3 µM, respectively.
With `CCN(c1ccc(CN(C(=O)C(C)(C)C)c2ccc(F)cc2)cn1)C1CC1` [Compound 7, N-(6-(Cyclopropyl(ethyl)amino)-pyridin-3-ylmethyl)-N-(4-fluorophenyl)-2,2-dimethyl-propionamide], the IC50 in assay [1] came out at 8 µM; in assay [2] (setting [3]), 1.7 µM; in assay [2] (setting [4]), 12.9 µM.
Regarding `CC(C)(C)C(=O)N(Cc1cnc(N2CCCCC2)nc1)c1ccc(F)cc1` [Compound 8, N-(4-fluorophenyl)-2,2-dimethyl-N-(2-piperidin-1-yl-pyrimidin-5-ylmethyl)-propionamide hydrochloride], the IC50 was found to be 8.7 µM in assay [1], 1.6 µM in assay [2] (setting [3]) and 5.1 µM in assay [2] (setting [4]).
For `CN1CCN(c2ccc(CN(C(=O)NC(C)(C)C)c3ccc(F)cc3)cn2)CC1` [Compound 11, 3-tert-butyl-1-(4-fluorophenyl)-1-(6-(4-methyl-piperazin-1-yl)-pyridin-3-ylmethyl)-urea hydrochloride], the 50% inhibitory concentration (IC50) in assay [1] stood at 44 µM.
For `CN1CCN(c2ccc(CN(C(=O)C3CCCO3)c3ccc(F)cc3)cn2)CC1` (stereo not drawn) [Compound 16, TETRAHYDRO-FURAN-2-CARBOXYLIC ACID (4-FLUOROPHENYL)-(6-(4-METHYL-PIPERAZIN-1-YL)-PYRIDIN-3-YLMETHYL)-AMIDE TRIFLUOROACETATE], the IC50 in assay [1] came out at 86 µM.
On the same count and under the same terms, as for `CN1CCN(c2ccc(CN(C(=O)C(C)(C)C)c3ccc(F)cc3)cn2)CC1` [Compound 17, N-(4-Fluorophenyl)-N-[6-(4-methyl-piperazin-1-yl)-pyridin-3-ylmethyl)-2,2-dimethyl-propionamide], the figure is 41.9 µM.
As to `CN(CCc1ccccn1)c1ccc(CN(C(=O)C(C)(C)C)c2ccc(F)cc2)cn1` [Compound 18, N-(4-Fluorophenyl)-2,2-dimethyl-N-{6-[methyl-(2-pyridin-2-yl-ethyl)-amino]-pyridin-3-ylmethyl}-propionamide], the IC50 in assay [1] came out at 7.1 µM; in assay [2] (setting [3]), 1.7 µM; in assay [2] (setting [4]) it was 4 µM.
For `CN(CCN1CCOCC1)c1ccc(CN(C(=O)C(C)(C)C)c2ccc(F)cc2)cn1` [Compound 20, N-(4-Fluorophenyl)-2,2-dimethyl-N-{6-[methyl-(2-morpholin-4-yl-ethyl)-amino]-pyridin-3-ylmethyl}-propionamide] the same measures were 35.5 µM, 5.2 µM and 22.2 µM.
With `Cc1cc(F)ccc1N(Cc1ccc(N2CCN(C)CC2)nc1)C(=O)C(C)(C)C` [Compound 21, N-(4-Fluoro-2-methyl-phenyl)-2,2-dimethyl-N-[6-(4-methyl-piperazin-1-yl)-pyridin-3-ylmethyl]-propionamide], the IC50 turned out to be 18 µM in assay [1], 2.7 µM in assay [2] (setting [3]) and 10.5 µM in assay [2] (setting [4]).
For the compound `CN1CCCN(c2ccc(CN(C(=O)C(C)(C)C)c3ccc(F)cc3)cn2)CC1` [Compound 22, N-(4-Fluorophenyl)-2,2-dimethyl-N-[6-(4-methyl-[1,4]diazepan-1-yl)-pyridin-3-ylmethyl]-propionamide], the figures for the IC50 in assay [1], in assay [2] (setting [3]) and in assay [2] (setting [4]) were 18.3 µM, 5.7 µM and 27.8 µM, respectively.
For `CCC(C)(C)C(=O)N(Cc1ccc(N(C)CCc2ccccn2)nc1)c1ccc(F)cc1` [Compound 24, N-(4-Fluorophenyl)-2,2-dimethyl-N-{6-[methyl-(2-pyridin-2-yl-ethyl)-amino]-pyridin-3-ylmethyl}-butyramide] the same measures were 3.8 µM, 0.6 µM and 2.9 µM.
As to `CC(C)(C)C(=O)N(Cc1ccc(N2CCN(c3ccccn3)CC2)nc1)c1ccc(F)cc1` [Compound 25, N-(4-Fluorophenyl)-2,2-dimethyl-N-[6-(4-pyridin-2-yl-piperazin-1-yl)-pyridin-3-ylmethyl]-propionamide], the IC50 in assay [1] was determined as 4.2 µM; in assay [2] (setting [3]), 0.3 µM; in assay [2] (setting [4]) it was 2.4 µM.
For `CCC(C)(C)C(=O)N(Cc1ccc(N2CCN(c3ccccn3)CC2)nc1)c1ccc(F)cc1` [Compound 26, N-(4-Fluorophenyl)-2,2-dimethyl-N-[6-(4-pyridin-2-yl-piperazin-1-yl)-pyridin-3-ylmethyl]-butyamide] the same measures were 12.2 µM, 0.4 µM and 1.7 µM.
As for `CN(CCc1cccnc1)c1ccc(CN(C(=O)C(C)(C)C)c2ccc(F)cc2)cn1` [Compound 27, N-(4-Fluorophenyl)-2,2-dimethyl-N-{6-[methyl-(2-pyridin-3-yl-ethyl)-amino]-pyridin-3-ylmethyl}-propionamide], the IC50 in assay [1] is 5.2 µM; in assay [2] (setting [3]) it was 1.1 µM; in assay [2] (setting [4]) it was 4.6 µM.
For the compound `CN(CCOc1ccccn1)c1ccc(CN(C(=O)C(C)(C)C)c2ccc(F)cc2)cn1` [Compound 29, N-(4-Fluorophenyl)-2,2-dimethyl-N-(6-{methyl-[2-(pyridin-2-yloxy)-ethyl]-amino}-pyridin-3-ylmethyl)-propanamide], the IC50 in assay [1] stood at 8.7 µM; in assay [2] (setting [3]) it was 1 µM; in assay [2] (setting [4]), 5.2 µM.
For `CC(C)c1ccccc1N(Cc1ccc(N2CCN(C)CC2)nc1)C(=O)C(C)(C)C` [Compound 30, N-(2-Isopropyl-phenyl)-2,2-dimethyl-N-[6-(4-methyl-piperazin-1-yl)-pyridin-3-ylmethyl]-propionamide], the concentration for half-maximal inhibition (IC50) is 23.6 µM in assay [1], 2.7 µM in assay [2] (setting [3]) and 18.9 µM in assay [2] (setting [4]).
For the compound `CCN(CC)c1ccc(CN(C(=O)C(C)(C)CC)c2ccc(F)cc2)cn1` [Compound 31, N-(6-Diethylamino-pyridin-3-ylmethyl)-N-(4-fluorophenyl)-2,2-dimethyl-butyramide], the values for the IC50 in assay [1], in assay [2] (setting [3]) and in assay [2] (setting [4]) were 6.6 µM, 1.3 µM and 5.5 µM, respectively.
On to `CN1CCN(c2ccc(CN(C(=O)C3CC3)c3ccc(F)cc3)cn2)CC1` [Compound 103, Cyclopropanecarboxylic acid (4-fluorophenyl)-[6-(4-methyl-piperaizn-1-yl)-pyridin-3-ylmethyl]-amide], for which, in assay [1], the IC50 was 129 µM.
With `CCN(CC)c1ccc(CN(C(=O)C2CCOC2)c2ccc(F)cc2)cn1` (stereo not drawn) [Compound 112, Tetrahydro-furan-3-carboxylic acid (6-diethylamino-pyridin-3-ylmethyl)-(4-fluorophenyl)-amide], in assay [1], the IC50 is 37 µM.
In the case of `CCN(CC)c1ccc(CN(C(=O)C2CCOCC2)c2ccc(F)cc2)cn1` [Compound 113, Tetrahydro-pyran-4-carboxylic acid (6-diethylamino-pyridin-3-ylmethyl)-(4-fluorophenyl)-amide], the concentration for half-maximal inhibition (IC50) in assay [1] came out at 30 µM.
